From PubChem BioAssay (NCI)
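48-hour exposure; five concentrations; linearly interpolated endpoints. GI50: concentration for 50% inhibition of growth. TGI marks complete inhibition of growth.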

Legend:
Test in all cases: NCI-60 cell line screen, 48 h
[1] = test system: HOP-92 NSCLC
[2] = test system: NCI/ADR-RES ovarian
[3] = test system: NCI-H23 lung
[4] = test system: K-562 leukemia
[5] = test system: MOLT-4 leukemia
[6] = test system: TK-10 renal
[7] = test system: M14 melanoma
[8] = test system: LOX IMVI melanoma
[9] = test system: KM20L2 colon
[10] = test system: DMS 273 small cell lung
[11] = test system: SNB-78 CNS

Compound	TGI [1] [µM]	TGI [2] [µM]	TGI [3] [µM]	TGI [4] [µM]	TGI [5] [µM]	TGI [6] [µM]	TGI [7] [µM]	TGI [8] [µM]	TGI [9] [µM]	TGI [10] [µM]	TGI [11] [µM]	GI50 [1] [nM]	GI50 [2] [nM]	GI50 [3] [nM]	GI50 [4] [nM]	GI50 [5] [nM]	GI50 [6] [nM]	GI50 [7] [nM]	GI50 [8] [nM]
CCOC(=O)Cn1c(=O)c(C)cn(COCCO)c1=O	> 100	> 100	> 100	> 100	> 100	> 100	> 100	> 100	–	–	–	–	–	–	–	–	–	–	–
COC(=O)C1c2cc3c(c(O)c2C(O)CC1(C)O)C(=O)c1c(O)cc2c(c1C3=O)OC1OC2(C)C(O)C(N(C)C)C1O (stereo not given)	> 76.6	3.05	–	> 100	> 100	–	–	–	> 100	> 100	> 100	–	–	–	–	–	–	–	–
CCOC(C)OC1CC(n2cc(C)c(=O)[nH]c2=O)OC1CO (stereo not given)	> 100	–	> 100	> 100	> 100	> 100	> 100	> 100	> 100	> 100	> 100	–	–	–	–	–	–	–	–
CN/N=C(\C(=O)Nc1ccc(C)c(C)c1)C(C(=O)OC)c1nc2ccc([N+](=O)[O-])cc2[nH]c1=O (stereo not given)	> 100	–	> 100	> 100	> 100	> 100	> 100	> 100	> 100	> 100	> 100	–	–	–	–	–	–	–	–
COc1ccc(C2=NC(c3ccc(Cl)cc3)C(c3ccc(Cl)cc3)N2C(=O)N2CCNC(=O)C2)c(OC(C)C)c1 (stereo not given)	4.06	3.83	3.45	> 10	> 10	3.39	3.31	3.33	–	–	–	2100	1920	1830	3470	3390	1930	1840	1780
CCN(CC)CCO[Si](OCCN(CC)CC)(OCCN(CC)CC)OCCN(CC)CC	–	–	> 100	–	–	> 100	> 100	> 100	> 100	> 100	–	–	–	–	–	–	–	–	–
O=C(CCC1CCCCN1)Nc1ccc2c(c1)C(=O)c1ccc(NC(=O)CCN3CCCCC3)cc1C2=O (stereo not given)	5.98	–	5.27	4.97	–	9.42	2.8	2.66	14.5	7.55	> 100	–	–	–	–	–	–	–	–
C(=C/c1nc2ccccc2o1)/c1ccc2c(c1)OCO2	69.7	39.5	> 100	> 65.3	> 100	–	–	> 47.8	> 53	> 37.5	90.6	–	–	–	–	–	–	–	–
C=C(C)[C@@H]1CC[C@]2(CO)CC[C@]3(C)[C@H](CC[C@@H]4[C@@]5(C)CC[C@H](NCO)C(C)(C)[C@@H]5CC[C@]43C)[C@@H]12	1.6	1.72	1.67	3.59	2.56	1.78	–	–	–	–	–	783	894	869	974	1000	965	–	–
CC1OC(=O)C(C(C)C)NC(=O)C(C(C)C)OC(=O)C(C(C)C)NC(=O)C(C)OC(=O)C(C(C)C)NC(=O)C(C(C)C)OC(=O)C(C(C)C)NC(=O)C(C)OC(=O)C(C(C)C)NC(=O)C(C(C)C)OC(=O)C(C(C)C)NC1=O (stereo not given)	–	0.117	0.0503	6.36	0.00858	–	–	–	0.493	0.0141	4.46	< 0.1	12.9	< 0.1	< 0.1	< 0.1	–	–	< 0.1
